Test results reported in ChEMBL document CHEMBL1201862, “PubChem BioAssay data set” (2004).
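Test compounds were applied to cells in 96-well plates for 48 hours at 5 doses. Here, GI50 denotes the concentration required for 50% inhibition of growth.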 Active and inactive are the calls of the source. Cut-off read from the data, not from the text of the source: active = GI50 up to about 1.1 µM and inactive = higher.

What was measured:
Assay in all cases: NCI anticancer screen, dose series, 48 h
LXFL 529 = tested on: LXFL 529
DLD-1 = tested on: DLD-1
HOP-18 = tested on: HOP-18
SNB-78 = tested on: SNB-78
DMS-273 = tested on: DMS-273
KM-20L2 = tested on: KM-20L2
M19-MEL = tested on: M19-MEL
XF498 = tested on: XF498
RXF 631 = tested on: RXF 631

Compound	GI50 (LXFL 529)	GI50 (DLD-1)	GI50 (HOP-18)	GI50 (SNB-78)	GI50 (DMS-273)	GI50 (KM-20L2)	GI50 (M19-MEL)	GI50 (XF498)	GI50 (RXF 631)
CC(O)CCC(=O)c1ccoc1 (stereo not drawn)	> 1000 µM (inactive)	7960 µM (inactive)	5150 µM (inactive)	5500 µM (inactive)	5450 µM (inactive)	> 9160 µM (inactive)	5480 µM (inactive)	–	–
CC(C)CCC[C@@H](C)C1CCC2[C@@H]3CC=C4C[C@@H](OC(=O)CCC(=O)NCC[N+](C)(C)CCCS(=O)(=O)[O-])CC[C@]4(C)C3CC[C@@]21C (stereo partly drawn)	27.9 µM (inactive)	21.7 µM (inactive)	30.5 µM (inactive)	24.9 µM (inactive)	14.7 µM (inactive)	81.3 µM (inactive)	18.5 µM (inactive)	–	–
COc1ccc(/C(=N\NC(=S)NN)C(c2ccc(OC)cc2)C2C(=O)Oc3ccccc32)cc1 (stereo not drawn)	72.4 µM (inactive)	> 10 µM (inactive)	7.18 µM (inactive)	> 10 µM (inactive)	> 10 µM (inactive)	> 10 µM (inactive)	> 10 µM (inactive)	> 10 µM (inactive)	–
C#CC(C)(C)OCCCCOc1cc(O)c2c(=O)c3ccccc3n(C)c2c1	> 100 µM (inactive)	> 100 µM (inactive)	> 100 µM (inactive)	> 100 µM (inactive)	77.8 µM (inactive)	31.3 µM (inactive)	> 100 µM (inactive)	> 100 µM (inactive)	–
O=c1nc(NC(c2ccccc2)(c2ccccc2)c2ccccc2)ccn1CCCl	13.5 µM (inactive)	35.3 µM (inactive)	25.5 µM (inactive)	29.2 µM (inactive)	–	16.4 µM (inactive)	18.8 µM (inactive)	14.1 µM (inactive)	27.3 µM (inactive)
CC(=O)NNc1nc(C)c(C(=O)NNC(=O)C(=O)Nc2ccc([N+](=O)[O-])cc2C#N)s1	44.3 µM (inactive)	–	–	> 100 µM (inactive)	> 100 µM (inactive)	> 100 µM (inactive)	> 100 µM (inactive)	> 100 µM (inactive)	–
Cc1c(C(=O)CSc2nc3ccccc3c(=O)n2-c2ccccc2)c(=O)n(-c2ccccc2)n1C	–	> 100 µM (inactive)	–	45.5 µM (inactive)	68.2 µM (inactive)	> 100 µM (inactive)	52.7 µM (inactive)	43.2 µM (inactive)	–
Nc1ncnc(NC2C=C(CO)C(O)C2O)c1[N+](=O)[O-] (stereo not drawn)	> 100 µM (inactive)	> 100 µM (inactive)	> 100 µM (inactive)	> 100 µM (inactive)	> 100 µM (inactive)	> 100 µM (inactive)	> 100 µM (inactive)	–	> 100 µM (inactive)
CC(=O)OCCOCNC(=S)N/N=C(\C)c1cnccn1	22.9 µM (inactive)	34.3 µM (inactive)	25.4 µM (inactive)	> 100 µM (inactive)	24.5 µM (inactive)	13.2 µM (inactive)	15.9 µM (inactive)	> 100 µM (inactive)	–
CC(C)(Br)C(Br)CC/C(=C/CBr)CBr.CC(C)(Br)C(Br)CC/C(=C\CBr)CBr (stereo not drawn)	3.3 µM (inactive)	3.39 µM (inactive)	18 µM (inactive)	4.46 µM (inactive)	1.65 µM (inactive)	–	2 µM (inactive)	–	–
Cc1cc(C)nc(/C(=N\NC(N)=O)C(=O)Nc2nc3ccc(C)cc3s2)c1	> 100 µM (inactive)	> 85.3 µM (inactive)	> 100 µM (inactive)	> 100 µM (inactive)	> 58.1 µM (inactive)	> 92.3 µM (inactive)	> 100 µM (inactive)	> 100 µM (inactive)	–
CCC1=C(C)/C(=C/c2[nH]c(C(Br)Br)c(CC)c2C)N=C1C(Br)Br	31.9 µM (inactive)	25.6 µM (inactive)	84.9 µM (inactive)	33.4 µM (inactive)	–	41 µM (inactive)	20.9 µM (inactive)	–	–
COC1(OC)CCC2C1C1CCC(OC)(OC)C21 (stereo not drawn)	> 50 µM (inactive)	> 50 µM (inactive)	> 50 µM (inactive)	> 50 µM (inactive)	> 50 µM (inactive)	> 50 µM (inactive)	> 50 µM (inactive)	> 50 µM (inactive)	> 50 µM (inactive)
COC1=CC(=O)C2C(C1=O)[C@@H]1c3ccccc3C[C@H]21 (stereo partly drawn)	–	> 100 µM (inactive)	–	> 100 µM (inactive)	> 100 µM (inactive)	–	> 100 µM (inactive)	> 100 µM (inactive)	> 100 µM (inactive)
Nc1nc(CCC(=O)Nc2cccc(C(F)(F)F)c2)cc(-c2ccc3ccccc3c2)n1	> 100 µM (inactive)	> 100 µM (inactive)	> 100 µM (inactive)	> 100 µM (inactive)	> 100 µM (inactive)	> 100 µM (inactive)	> 100 µM (inactive)	> 100 µM (inactive)	–
CCc1nnc(S)n1/N=C/c1ccc(-c2ccc([N+](=O)[O-])cc2)o1	> 100 µM (inactive)	> 100 µM (inactive)	–	> 100 µM (inactive)	> 100 µM (inactive)	> 100 µM (inactive)	> 100 µM (inactive)	> 100 µM (inactive)	–
COC(=O)C1=C(C(=O)OC)C2(C)Nc3ccccc3C2=C(c2ccccc2)C1 (stereo not drawn)	15.1 µM (inactive)	30.4 µM (inactive)	–	19 µM (inactive)	21.4 µM (inactive)	28.1 µM (inactive)	24.2 µM (inactive)	12.7 µM (inactive)	–
O=c1cc(-c2ccccc2)oc2cc(OCC(O)COc3ccc4c(=O)cc(-c5ccccc5)oc4c3)ccc12	40 µM (inactive)	> 100 µM (inactive)	> 100 µM (inactive)	13.6 µM (inactive)	41.9 µM (inactive)	> 100 µM (inactive)	56.4 µM (inactive)	23.4 µM (inactive)	–
COC12CCC(C(C(=O)c3ccccc3)=C1C(=O)c1ccccc1)C(O)C2 (stereo not drawn)	> 100 µM (inactive)	> 100 µM (inactive)	–	> 100 µM (inactive)	> 100 µM (inactive)	–	> 100 µM (inactive)	> 100 µM (inactive)	> 100 µM (inactive)
O=C(OC1CC(n2cc(F)c(=O)[nH]c2=O)OC1CSC(=O)c1ccccc1)c1ccccc1 (stereo not drawn)	90.8 µM (inactive)	33.8 µM (inactive)	33.3 µM (inactive)	32.1 µM (inactive)	–	18.7 µM (inactive)	26.5 µM (inactive)	–	15.1 µM (inactive)
CCCCN(CCCC)C(=O)C(=O)CC(=O)c1ccc(Br)cc1	> 100 µM (inactive)	> 100 µM (inactive)	> 100 µM (inactive)	> 100 µM (inactive)	> 100 µM (inactive)	> 100 µM (inactive)	> 100 µM (inactive)	> 100 µM (inactive)	–
c1ccc2c(C3NCCc4nc[nH]c43)cccc2c1 (stereo not drawn)	> 100 µM (inactive)	> 100 µM (inactive)	> 100 µM (inactive)	> 100 µM (inactive)	> 100 µM (inactive)	> 100 µM (inactive)	> 100 µM (inactive)	–	–
CCCCSC1CCSc2c1ccc1ccccc21 (stereo not drawn)	–	78.9 µM (inactive)	> 100 µM (inactive)	> 100 µM (inactive)	–	53.8 µM (inactive)	> 100 µM (inactive)	0.119 µM (active)	–
CCOC(=O)C1S/C(=N\c2cccc(Cl)c2C)N=C1C (stereo not drawn)	> 10 µM (inactive)	> 10 µM (inactive)	28.7 µM (inactive)	33 µM (inactive)	–	17.3 µM (inactive)	26.9 µM (inactive)	19.7 µM (inactive)	–
Cn1cnc([N+](=O)[O-])c1Sc1nc(N)nc2c1ncn2C1OC(CO)C(O)C1O (stereo not drawn)	45.8 µM (inactive)	7.67 µM (inactive)	44.7 µM (inactive)	7.26 µM (inactive)	4.17 µM (inactive)	3.06 µM (inactive)	35.2 µM (inactive)	6.87 µM (inactive)	–
N#C/C(=C\c1cc(O)cc(O)c1)C(N)=O	> 100 µM (inactive)	> 100 µM (inactive)	–	> 100 µM (inactive)	> 100 µM (inactive)	> 100 µM (inactive)	> 100 µM (inactive)	> 100 µM (inactive)	> 100 µM (inactive)
C[N+](C)(C)CCC(=O)CC[N+](C)(C)C	16.1 µM (inactive)	16.2 µM (inactive)	17.1 µM (inactive)	22.3 µM (inactive)	25.6 µM (inactive)	25.5 µM (inactive)	23.5 µM (inactive)	21.2 µM (inactive)	–
CC12CCC(=O)N1c1cc([N+](=O)[O-])ccc1N2 (stereo not drawn)	> 100 µM (inactive)	> 100 µM (inactive)	> 100 µM (inactive)	> 100 µM (inactive)	> 100 µM (inactive)	> 100 µM (inactive)	> 100 µM (inactive)	> 100 µM (inactive)	> 100 µM (inactive)
O=C(NCCCl)SCCO	> 100 µM (inactive)	> 100 µM (inactive)	–	> 100 µM (inactive)	> 100 µM (inactive)	> 100 µM (inactive)	> 100 µM (inactive)	–	> 100 µM (inactive)
